Experimental data reported in ChEMBL document CHEMBL4414588, “Cinerols, Nitrogenous Meroterpenoids from the Marine Sponge Dysidea cinerea” (J Nat Prod, 2019).
The source made the active and inactive calls. No cut-off for these calls is given here.

Legend:
[1] = biological target: T1, Tyrosine-protein phosphatase non-receptor type 11 (Homo sapiens) (UniProt Q06124); test: Inhibition of SHP2 (unknown origin)
T1 sequence (whole entry): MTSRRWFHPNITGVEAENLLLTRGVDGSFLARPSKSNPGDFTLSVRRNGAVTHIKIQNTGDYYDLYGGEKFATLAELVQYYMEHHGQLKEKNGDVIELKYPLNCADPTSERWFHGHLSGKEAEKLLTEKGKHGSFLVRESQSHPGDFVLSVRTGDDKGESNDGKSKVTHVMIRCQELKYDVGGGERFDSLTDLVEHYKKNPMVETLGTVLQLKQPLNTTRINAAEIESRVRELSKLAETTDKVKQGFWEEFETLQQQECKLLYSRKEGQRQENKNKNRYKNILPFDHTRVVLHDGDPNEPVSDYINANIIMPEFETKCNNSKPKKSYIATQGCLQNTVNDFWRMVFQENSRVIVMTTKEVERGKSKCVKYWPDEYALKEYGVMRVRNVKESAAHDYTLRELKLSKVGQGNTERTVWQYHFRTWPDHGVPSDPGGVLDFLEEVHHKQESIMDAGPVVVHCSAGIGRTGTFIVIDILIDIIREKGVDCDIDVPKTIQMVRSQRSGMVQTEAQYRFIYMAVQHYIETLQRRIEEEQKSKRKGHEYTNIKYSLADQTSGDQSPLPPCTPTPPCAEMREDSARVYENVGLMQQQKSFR

[2] = biological target: Tyrosine-protein kinase JAK2 (Homo sapiens) (UniProt O60674); test: Inhibition of JAK2 (unknown origin)
Sequence of Tyrosine-protein kinase JAK2 (Homo sapiens) (O60674 whole entry): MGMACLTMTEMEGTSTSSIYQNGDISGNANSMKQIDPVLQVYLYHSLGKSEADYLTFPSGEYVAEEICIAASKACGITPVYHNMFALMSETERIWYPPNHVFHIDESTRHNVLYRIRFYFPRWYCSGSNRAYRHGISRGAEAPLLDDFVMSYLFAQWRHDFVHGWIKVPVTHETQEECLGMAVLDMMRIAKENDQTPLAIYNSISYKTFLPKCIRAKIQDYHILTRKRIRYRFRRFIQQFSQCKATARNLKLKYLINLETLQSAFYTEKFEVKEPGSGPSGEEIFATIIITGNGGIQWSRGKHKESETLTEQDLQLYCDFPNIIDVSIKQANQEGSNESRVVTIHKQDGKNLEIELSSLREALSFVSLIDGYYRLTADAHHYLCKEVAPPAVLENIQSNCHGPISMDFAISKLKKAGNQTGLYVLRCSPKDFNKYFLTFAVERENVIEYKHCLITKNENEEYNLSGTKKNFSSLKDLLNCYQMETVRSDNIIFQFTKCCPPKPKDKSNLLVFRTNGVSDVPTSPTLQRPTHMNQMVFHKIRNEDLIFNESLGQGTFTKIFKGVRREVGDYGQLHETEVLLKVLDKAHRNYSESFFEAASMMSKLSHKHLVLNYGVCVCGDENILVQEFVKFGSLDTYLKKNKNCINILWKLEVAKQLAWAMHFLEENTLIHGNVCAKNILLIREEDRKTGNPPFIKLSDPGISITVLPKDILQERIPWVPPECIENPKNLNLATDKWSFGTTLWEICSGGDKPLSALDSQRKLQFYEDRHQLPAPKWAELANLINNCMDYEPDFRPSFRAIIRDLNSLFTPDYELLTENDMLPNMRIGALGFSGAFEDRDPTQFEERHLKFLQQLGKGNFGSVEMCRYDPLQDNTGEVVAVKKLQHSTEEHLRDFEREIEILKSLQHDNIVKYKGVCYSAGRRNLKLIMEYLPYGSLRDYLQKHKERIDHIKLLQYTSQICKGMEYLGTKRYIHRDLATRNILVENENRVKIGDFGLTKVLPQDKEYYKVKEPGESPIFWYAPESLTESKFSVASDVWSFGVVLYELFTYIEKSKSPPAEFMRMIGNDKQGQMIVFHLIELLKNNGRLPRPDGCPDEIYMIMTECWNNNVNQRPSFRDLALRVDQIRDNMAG

[3] = biological target: Acetyl-CoA carboxylase 1 (Homo sapiens) (UniProt Q13085); test: Inhibition of ACC1 (unknown origin)
[4] = test system: A-375; test: Cytotoxicity against human A375 cells assessed as reduction in cell viability at 32 uM incubated for 72 hrs by CCK8 assay; format: cell-based; settings: a-375, 72 h
[5] = test system: HEK293; test: Cytotoxicity against human HEK293 cells assessed as reduction in cell viability at 32 uM incubated for 72 hrs by CCK8 assay; format: cell-based; settings: hek293, 72 h
[6] = biological target: T2, Tyrosine-protein phosphatase non-receptor type 1 (Homo sapiens, UniProt P18031); test: Inhibition of PTP1B (unknown origin) using pNPP as substrate incubated for 30 mins
T2 sequence (P18031 whole entry): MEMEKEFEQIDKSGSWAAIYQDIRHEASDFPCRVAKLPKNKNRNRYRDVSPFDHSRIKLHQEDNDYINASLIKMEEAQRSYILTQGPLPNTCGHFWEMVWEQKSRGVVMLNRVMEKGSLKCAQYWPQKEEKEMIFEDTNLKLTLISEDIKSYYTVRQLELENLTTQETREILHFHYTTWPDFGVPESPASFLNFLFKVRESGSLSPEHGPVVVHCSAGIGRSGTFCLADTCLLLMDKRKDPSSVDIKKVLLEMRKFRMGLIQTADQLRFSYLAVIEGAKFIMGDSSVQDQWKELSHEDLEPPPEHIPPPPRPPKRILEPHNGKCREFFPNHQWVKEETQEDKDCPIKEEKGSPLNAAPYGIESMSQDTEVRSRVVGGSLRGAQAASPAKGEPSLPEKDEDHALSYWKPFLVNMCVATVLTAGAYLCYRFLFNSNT

[7] = biological target: T3, ATP-citrate synthase (Homo sapiens, UniProt P53396); test: Inhibition of ACL (unknown origin)
T3 sequence (P53396 whole entry): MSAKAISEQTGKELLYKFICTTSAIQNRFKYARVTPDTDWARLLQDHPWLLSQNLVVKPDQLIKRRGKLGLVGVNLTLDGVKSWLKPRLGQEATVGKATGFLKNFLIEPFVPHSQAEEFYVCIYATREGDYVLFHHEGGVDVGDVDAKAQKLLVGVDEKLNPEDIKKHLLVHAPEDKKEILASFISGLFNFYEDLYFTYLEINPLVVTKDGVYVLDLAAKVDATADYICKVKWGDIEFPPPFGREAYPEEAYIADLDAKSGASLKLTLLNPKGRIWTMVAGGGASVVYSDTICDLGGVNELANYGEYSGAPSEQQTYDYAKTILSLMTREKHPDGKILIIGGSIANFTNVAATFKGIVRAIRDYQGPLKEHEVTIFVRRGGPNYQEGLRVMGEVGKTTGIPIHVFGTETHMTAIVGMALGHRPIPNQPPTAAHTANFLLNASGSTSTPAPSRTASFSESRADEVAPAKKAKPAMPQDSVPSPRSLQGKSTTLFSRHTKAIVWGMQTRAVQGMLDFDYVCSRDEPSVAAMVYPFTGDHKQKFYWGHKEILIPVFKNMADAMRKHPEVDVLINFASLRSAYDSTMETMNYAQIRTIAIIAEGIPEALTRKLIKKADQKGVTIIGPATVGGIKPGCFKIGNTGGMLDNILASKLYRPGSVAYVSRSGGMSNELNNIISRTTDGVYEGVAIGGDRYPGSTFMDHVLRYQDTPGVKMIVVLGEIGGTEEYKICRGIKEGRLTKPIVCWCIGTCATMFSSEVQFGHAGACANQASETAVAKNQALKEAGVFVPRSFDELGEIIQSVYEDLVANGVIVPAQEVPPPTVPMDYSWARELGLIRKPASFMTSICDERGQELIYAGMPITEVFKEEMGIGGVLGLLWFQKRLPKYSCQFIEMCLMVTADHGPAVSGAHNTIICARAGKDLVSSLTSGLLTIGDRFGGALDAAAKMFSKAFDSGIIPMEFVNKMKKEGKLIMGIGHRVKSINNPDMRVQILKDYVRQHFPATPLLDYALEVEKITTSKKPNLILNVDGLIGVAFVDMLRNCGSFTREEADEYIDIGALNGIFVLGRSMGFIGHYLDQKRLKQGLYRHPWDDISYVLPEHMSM

[8] = biological target: Tyrosine-protein phosphatase non-receptor type 6 (Homo sapiens, UniProt P29350); test: Inhibition of SHP1 (unknown origin)
Sequence of Tyrosine-protein phosphatase non-receptor type 6 (P29350 whole entry): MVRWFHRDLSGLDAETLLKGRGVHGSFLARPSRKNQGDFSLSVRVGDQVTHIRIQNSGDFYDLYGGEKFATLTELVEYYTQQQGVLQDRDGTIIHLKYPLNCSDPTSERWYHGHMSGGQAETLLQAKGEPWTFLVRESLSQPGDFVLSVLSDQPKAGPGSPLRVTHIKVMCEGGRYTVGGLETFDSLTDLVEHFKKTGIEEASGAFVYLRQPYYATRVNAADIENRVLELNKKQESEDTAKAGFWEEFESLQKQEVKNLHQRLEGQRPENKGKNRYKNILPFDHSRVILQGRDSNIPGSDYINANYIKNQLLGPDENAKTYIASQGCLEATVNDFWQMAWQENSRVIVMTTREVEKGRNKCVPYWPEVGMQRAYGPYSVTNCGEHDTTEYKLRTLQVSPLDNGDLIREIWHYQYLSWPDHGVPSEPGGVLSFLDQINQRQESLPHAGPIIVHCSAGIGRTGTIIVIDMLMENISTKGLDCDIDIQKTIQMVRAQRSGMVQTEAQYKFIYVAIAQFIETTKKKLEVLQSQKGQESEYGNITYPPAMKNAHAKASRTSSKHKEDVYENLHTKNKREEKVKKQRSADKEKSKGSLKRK

Compound | inhibition [1] | inhibition [2] | inhibition [3] | Activity [4] | Activity [5] | IC50 [6] | IC50 [7] | IC50 [8]
CC1=CCC[C@H]2[C@](C)(Cc3cc(O)cc4nc(C)oc34)[C@@H](C)CC[C@]12C | inactive | inactive | inactive | Non-Toxic | Non-Toxic |  |  | 
CC1=CCC[C@H]2[C@](C)(Cc3cc(N4CCCC4=O)ccc3O)[C@@H](C)CC[C@]12C | inactive | inactive | inactive | Non-Toxic | Non-Toxic |  |  | 
CC1=CCC[C@H]2[C@](C)(Cc3cc(O)cc4nc5n(c34)CCC5)[C@@H](C)CC[C@]12C | inactive | inactive | inactive | Non-Toxic |  | 2.8 to 27 µM | 2.8 to 27 µM | 2.8 to 27 µM
C=C1CCC[C@H]2[C@](C)(Cc3cc(O)cc4nc(C)oc34)[C@@H](C)CC[C@]12C | inactive | inactive | inactive | Non-Toxic | Non-Toxic |  |  | 
CC1=CCC[C@H]2[C@](C)(Cc3cc(O)cc4c3oc(=O)n4C)[C@@H](C)CC[C@]12C | inactive | inactive | inactive | Non-Toxic | Non-Toxic |  |  | 
CC1=CCC[C@H]2[C@](C)(Cc3cc(-n4cccc4C=O)ccc3O)[C@@H](C)CC[C@]12C | inactive | inactive | inactive | Non-Toxic | Non-Toxic |  |  | 
CC1=CCC[C@H]2[C@](C)(Cc3cc(O)cc4[nH]c(=O)oc34)[C@@H](C)CC[C@]12C | inactive | inactive | inactive | Non-Toxic | Non-Toxic | 2.8 to 27 µM | 2.8 to 27 µM | 2.8 to 27 µM
C=C1CCC[C@H]2[C@](C)(Cc3cc(O)cc4nc5n(c34)CCC5)[C@@H](C)CC[C@]12C | inactive | inactive | inactive | Non-Toxic |  | 2.8 to 27 µM | 2.8 to 27 µM | 2.8 to 27 µM
CC1=CCC[C@H]2[C@](C)(Cc3cc(NC(=O)CC(C)C)ccc3O)[C@@H](C)CC[C@]12C | inactive | inactive | inactive | Non-Toxic |  |  |  | 
CC(=O)Nc1ccc(O)c(C[C@]2(C)[C@@H](C)CC[C@]3(C)C(C)=CCC[C@@H]23)c1 | inactive | inactive | inactive | Non-Toxic | Non-Toxic |  |  | 
CC1=CCC[C@H]2[C@](C)(Cc3cc(O)cc4ncoc34)[C@@H](C)CC[C@]12C | inactive | inactive | inactive | Non-Toxic | Non-Toxic | 2.8 to 27 µM | 2.8 to 27 µM | 2.8 to 27 µM
